Reference: PubChem BioAssay AID732 (Emory University Molecular Libraries Screening Center, 2007)
Where “and” joins values, the source holds several entries; their conditions need not be identical. Equal values may be shown once. Calls of active or inactive are those of the source. No rule for the calls is given here.

Test system: in vivo angiogenesis, blood vessel count
Test: angiogenesis inhibition in living animals, in vivo study, HTS (AID 732);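 also: zebrafish embryos dosed at one day post fertilization; 0% = reference inhibitor and 100% = plate mean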
Conditions: active compounds read low;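 tested at 30 µM in the well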

SMILES | vessel count % control
CC1=C(C)C(=O)C(CCCCC#CCCCC#CCO)=C(C)C1=O | 88.8% (inactive)
CC[C@@H](CO)NC(=O)[C@@H]1C=C2c3cccc4[nH]cc(c34)C[C@H]2N(C)C1 | 121% (inactive)
Oc1ccccc1O | 96.4% (inactive)
N[C@@H](Cn1ccc(=O)[nH]c1=O)C(=O)O | 102% (inactive)
CC(C)NC[C@H](O)COc1ccc(CC(N)=O)cc1 | 86.6% (inactive)
CN1CCc2cc(O)cc3c2[C@H]1Cc1ccc(O)c(O)c1-3 | 96.7% (inactive)
O=C(O)C1=CC(=C(c2ccc(O)c(C(=O)O)c2)c2ccc(O)c(C(=O)O)c2)C=CC1=O | 109% (inactive)
CC(=O)NCCc1c[nH]c2ccccc12 | 103% (inactive)
CC(=O)/C(C)=N/O | 104% (inactive)
CC[C@@H]1C(=O)OC[C@@H]1Cc1cncn1C | 82.3% (inactive) and 90.8% (inactive)
CCCCc1oc2ccccc2c1C(=O)c1cc(I)c(OCCN(CC)CC)c(I)c1 | 120% (inactive)
CC(C)(C)c1ccc(C(O)CCCN2CCC(C(O)(c3ccccc3)c3ccccc3)CC2)cc1 (stereo not drawn) | 99.8% (inactive)
C[C@H](Cc1ccc(O)c(O)c1)[C@@H](C)Cc1ccc(O)c(O)c1 | 124% (inactive)
CC(C)CC(NP(=O)(O)O[C@@H]1O[C@@H](C)[C@H](O)[C@@H](O)[C@H]1O)C(=O)NC(Cc1c[nH]c2ccccc12)C(=O)O (stereo partly drawn) | 118% (inactive)
CCCCNC(=O)NS(=O)(=O)c1ccc(C)cc1 | 87.6% (inactive)
CCn1c(=O)[nH]c2cc(Cl)c(Cl)cc21 | 87.7% (inactive)
CN(C)CCC(c1ccc(Cl)cc1)c1ccccn1 (stereo not drawn) | 128% (inactive)
C/C(O)=C(\C#N)C(=O)Nc1cc(Br)ccc1Br | 139% (inactive)
C#CCN(C)Cc1ccccc1 | 91.4% (inactive)
O=C(O)c1cc2cc(F)ccc2[nH]1 | 104% (inactive)
NO | 93.7% (inactive)
C/C=C(/C)C(=O)O[C@H]1C(C)=C2[C@H]([C@@H]1OC(=O)CCCCCCC)[C@@](C)(OC(C)=O)C[C@H](OC(=O)CCC)[C@@]1(O)[C@H]2OC(=O)[C@@]1(C)O | 0% (inactive)
OC(CN1CCN(c2cccc(Cl)c2)CC1)C(c1ccccc1)c1ccccc1 (stereo not drawn) | 67.8% (inactive)
CC(C)OC(=O)C(C)(C)Oc1ccc(C(=O)c2ccc(Cl)cc2)cc1 | 89.2% (inactive)
OCc1cc(C(O)CNCCCCCCOCCCCc2ccccc2)ccc1O (stereo not drawn) | 126% (inactive)

SMILES | vessel count % control
CC(O)C(C)OC(=O)[C@@H]1C[C@@H]2c3cccc4c3c(cn4C(C)C)C[C@H]2N(C)C1 (stereo partly drawn) | 90.9% (inactive)
CC(C)Oc1cccnc1N(C)C1CCN(Cc2ccccc2)CC1 | 98.1% (inactive)
O=Nc1c(-c2c(O)[nH]c3ccc([N+](=O)[O-])cc23)[nH]c2ccc(Br)cc12 | 79.3% (inactive)
O=C1NC(=O)C(c2ccccc2[N+](=O)[O-])=C1Nc1ccc(O)c(Cl)c1 | 105% (inactive)
CSc1nc(N)c2ncn([C@@H]3O[C@H](COP(=O)(O)OP(=O)(O)OP(=O)(O)O)[C@H](O)C3O)c2n1 (stereo partly drawn) | 105% (inactive)
O=C(OCCN1CCCCC1)c1c[nH]c2ccccc12 | 109% (inactive)
CN(C)CCC=C1c2ccccc2CCc2ccccc21 | 91.2% (inactive)
CCCN(CCC)C1CCc2ccc(O)cc2C1 (stereo not drawn) | 87.6% (inactive)
CC[N+](CC)(CC)CC | 112% (inactive)
NC(N)=NCCCCN=C(N)N | 88% (inactive)
O=C(O)[C@@H]1C[C@H](C(=O)O)N1 | 59.7% (inactive)
CC1=C(/C=C/C(C)=C/C=C/C(C)=C/C(=O)Nc2ccc(O)cc2)C(C)(C)CCC1 | 96.8% (inactive)
Cc1ccccc1CNc1ncnc2c1ncn2C1OC(CO)C(O)C1O (stereo not drawn) | 93.1% (inactive)
COC(=O)C1=C(C)NC(C)=C([N+](=O)[O-])C1c1ccccc1C(F)(F)F (stereo not drawn) | 92.2% (inactive)
CCCNC(=O)NS(=O)(=O)c1ccc(Cl)cc1 | 124% (inactive)
CC(=O)OCC1=C(C(=O)O)N2C(=O)[C@@H](NC(=O)CSc3ccncc3)[C@H]2SC1 | 97.3% (inactive)
NC(=O)c1cnccn1 | 76.5% (inactive)
CC(=O)CCCCn1c(=O)c2c(ncn2C)n(C)c1=O | 109% (inactive)
COC(=O)c1c(-c2cc(OC)c(OC)c(OC)c2)c2ccc(OCc3ccccn3)cc2c(=O)n1-c1ccc(N)cc1 | 109% (inactive)
Cc1cc(C(C)(C)C)cc(C)c1CC1=NCCN1 | 101% (inactive)
COc1ccc(NC(=O)/C=C/c2ccc(Cl)cc2)cc1 | 106% (inactive)
O=C1Cc2c([nH]c3ccc(Br)cc23)-c2ccccc2N1 | 101% (inactive)
O=C1C(c2c(O)[nH]c3ccc(F)cc23)=Nc2ccccc21 | 59% (inactive)
C[C@]12CC[C@@H](O)CC1CC[C@@H]1[C@@H]2CC[C@]2(C)C(=O)CC[C@@H]12 (stereo partly drawn) | 104% (inactive)
O=C1C(c2c(O)[nH]c3ccccc23)=Nc2ccc(Br)cc21 | 108% (inactive)

SMILES | vessel count % control
O=C(O)c1cc([N+](=O)[O-])ccc1NCCCc1ccccc1 | 92.5% (inactive)
COc1cc(CCN)ccc1O | 124% (inactive)
NCCCCCCCCCCN | 146% (inactive)
COc1ccc(CCN(C)CCCC(C#N)(c2ccc(OC)c(OC)c2)C(C)C)cc1OC (stereo not drawn) | 118% (inactive)
CN1CCN(C(=O)OC2c3nccnc3C(=O)N2c2ccc(Cl)cn2)CC1 (stereo not drawn) | 105% (inactive)
Cc1ccc(O)c(N=Nc2ccccc2)n1 | 112% (inactive)
NC1CCc2cc(O)c(O)cc2C1 (stereo not drawn) | 94.8% (inactive)
CC(C(=O)O)c1ccc(CC2CCCC2=O)cc1 (stereo not drawn) | 113% (inactive)
NC(N)=NCCSSCCN=C(N)N | 93.7% (inactive)
N.N.N.N.N.N.N.N.N.N.N.N.N.N.O.O.[Cl-].[Cl-].[Cl-].[Cl-].[Cl-].[Cl-].[Ru+4].[Ru+5].[Ru+5] | 123% (inactive)
CC(C)NCC(O)COc1ccc(CC(N)=O)cc1 (stereo not drawn) | 102% (inactive)
NNCc1cccc(O)c1 | 85.8% (inactive)
N#C/C(=C\c1ccc(O)c(O)c1)C(=O)NCCc1ccccc1 | 115% (inactive)
C[N+]1(C)CCC(OC(=O)C(c2ccccc2)c2ccccc2)CC1 | 91.5% (inactive)
CC(CCc1ccccc1)NCC(O)c1ccc(O)c(C(N)=O)c1 (stereo not drawn) | 89.9% (inactive)
CC(N)Cc1c[nH]c2ccc(OCc3cccs3)cc12 (stereo not drawn) | 107% (inactive)
NCC1(CC(=O)O)CCCCC1 | 98.7% (inactive)
O=C(CCCN1CCC(O)(c2ccc(Cl)cc2)CC1)c1ccc(F)cc1 | 77.9% (inactive)
O=C1NCN(c2ccccc2)C12CCN(CC1COc3ccccc3O1)CC2 (stereo not drawn) | 94.6% (inactive)
CCCCCCCCC(=O)NCc1ccc(O)c(OC)c1 | 98.1% (inactive)
NCCS(=O)O | 107% (inactive)
CCCCNc1c(C(=O)OCC)c(C)nc2c1cnn2CC | 87.3% (inactive)
CC(N)Cc1c[nH]c2ccc(O)cc12 (stereo not drawn) | 99.1% (inactive)
CCCC(CCC)C(=O)O | 89.7% (inactive)
N=C(N)c1ccccc1 | 110% (inactive)

SMILES | vessel count % control
Oc1cc(O)cc(/C=C/c2ccc(O)c(O)c2)c1 | 101% (inactive)
O=C(Cc1ccc(Cl)c(Cl)c1)N1CCCCC1CN1CCCC1 (stereo not drawn) | 114% (inactive)
CCCCCCCCCCCCCCCCCCNC(=O)OCC(COP(=O)([O-])OCC[n+]1ccsc1)OC (stereo not drawn) | 92% (inactive)
O=S(=O)(NCCNC/C=C/c1ccc(Br)cc1)c1cccc2cnccc12 | 90.3% (inactive)
NC(N)=NC(=O)Cc1c(Cl)cccc1Cl | 119% (inactive)
C#CCN(C)CCCOc1ccc(Cl)cc1Cl | 100% (inactive)
N=Nc1c(-c2c(O)[nH]c3c(Cl)cc(Cl)cc23)[nH]c2ccc(Br)cc12 | 53.5% (inactive)
NC(N)=N[C@@H](CCC(=O)O)C(=O)O | 99.2% (inactive)
CCCn1c(C)c(C(=O)c2ccc3ccccc3c2)c2ccccc21 | 110% (inactive)
O=C(O)Cc1cnc[nH]1 | 110% (inactive)
O=c1[nH]c(=O)c2nc3ccccc3nc2[nH]1 | 129% (inactive)
CCCN1CCC[C@@H]2Cc3[nH]ncc3C[C@H]21 | 129% (inactive) and 112% (inactive)
CC(C)N(CCC(C(N)=O)(c1ccccc1)c1ccccn1)C(C)C (stereo not drawn) | 99.1% (inactive) and 109% (inactive)
CC(COc1ccc(/C=C/c2ccccc2)cc1)[N+](C)(C)C (stereo not drawn) | 106% (inactive)
CNc1ncnc2c1ncn2[C@H]1C[C@H](OP(=O)(O)O)[C@@H](COP(=O)(O)O)O1 | 93.2% (inactive)
CC(C)C[C@H]1C(=O)N2CCC[C@H]2[C@]2(O)O[C@](NC(=O)[C@@H]3C=C4c5cccc6[nH]c(Br)c(c56)C[C@H]4N(C)C3)(C(C)C)C(=O)N12 | 110% (inactive)
Cn1c(=O)c2[nH]cnc2n(C)c1=O | 105% (inactive)
C=CCn1c(=O)c2c(nc(-c3ccc(S(=O)(=O)O)cc3)n2C)n(C)c1=O | 92% (inactive)
CC(N)(C(=O)O)c1ccc(C(=O)O)cc1 (stereo not drawn) | 93.5% (inactive)
COc1ccc(CCN(C)CCCC(C#N)(c2cc(OC)c(OC)c(OC)c2)C(C)C)cc1OC (stereo not drawn) | 102% (inactive)
NC(Cc1cccc(-c2ccccc2CP(=O)(O)O)c1)C(=O)O (stereo not drawn) | 106% (inactive)
CN1C(=O)CC[C@H]1c1cccnc1 | 110% (inactive)
CC[C@@H](CO)NC(=O)[C@@H]1C=C2c3cccc4c3c(cn4C)C[C@H]2N(C)C1 | 70.9% (inactive)
